# Patent publication US20090274698A1, “Combination anti-cancer therapy” (priority 2007, published 2009)
# Legend:
# [1] = test system: pAkt; experiment: Western blot of pAkt in a panel of cell lines from various tumor types; format: cell-based, human
# Protocol: (§1) Cell extracts were prepared by detergent lysis (50 mM Tris-HCl, pH 8.0, 150 mM NaCl, 1% NP-40, 0.5% sodium deoxycholate, 0.1% SDS, containing protease inhibitor (P8340, Sigma, St. Louis, Mo.) and phosphatase inhibitor (P5726, Sigma, St. Louis, Mo.) cocktails. The soluble protein concentration was determined by micro-BSA assay (Pierce, Rockford Ill.). Protein immunodetection was performed by electrophoretic transfer of SDS-PAGE separated proteins to nitrocellulose, incubation with antibody, and chemiluminescent second step detection (PicoWest; Pierce, Rockford, Ill.). The antibodies included: phospho-Akt(473), phospho-Akt(308), and total Akt. All antibodies were obtained from Cell Signaling Technology, Inc. (Danvers, Mass.). For analysis of an agent's effect on the phosphorylation of downstream signaling proteins, cell lines were grown to approximately 70% confluency, at which time the indicated agent was added at the indicated concentration, and cells were incubated at 37° C. for 24 hours. The media was removed, cells were washed two times with PBS, and cells were lysed as previously described.
# [2] = test system: tumor cell lines; experiment: Anti-proliferative activity across tumor cell lines (statement of the description); format: cell-based
# [3] = test system: pAkt-S473 in ovarian carcinoma cell lines (Ovcar3, SKov3, MDAH 2774, CaOV3); experiment: Western blot of phospho-Akt(S473) in ovarian carcinoma cell lines, cisplatin study (FIG. 8); details: 10 nM rapamycin, 20 μM Compound A, 30 μM cisplatin, 24 hours
# Protocol: Band density was determined and relative levels of phospho-Akt(S473) are expressed graphically relative to DMSO-treated control lysate. Four ovarian cell lines were assayed (A) Ovcar3, (B) SKov3, (C) MDAH 2774, (D) CaOV3.
# as §1
# [4] = test system: MDA-MB-231 cells; experiment: Apoptosis (Caspase 3/7 Glo) in MDA-MB-231 cells; format: cell-based, human; details: MDA-MB-231, 24 hours, Caspase 3/7 activity
# Protocol: Apoptosis was measured 24 hrs after treatment. […] Measurements were made 24 hours after treatments, and apoptosis was evaluated by fold induction in Caspase 3/7 activity.
# [5] = test system: pAkt (Ser 473) in MDA-MB-231 tumor cells; experiment: Western blot of pAkt (Ser 473) in MDA-MB-231 tumor cells; details: MDA-MB-231, 24 hours
# Protocol: Cells were treated for 24 hours prior to harvesting lysates. Ctrl=control.
# as §1
# [6] = test system: pAkt (serine 473) in ovarian tumor cells; experiment: Western blot of pAkt (serine 473) in ovarian cell lines, gemcitabine study (FIG. 11A); format: cell-based, human; details: gemcitabine 1 μM, Compound B 10 μM, rapamycin 10 nM, 24 hours
# Protocol: as §1
# [7] = test system: pAkt (Ser 473) in Ovcar3 cells; experiment: Western blot of pAkt (Ser 473) in Ovcar3 cells (FIG. 9, 10); format: cell-based, human; details: Ovcar3, 24 hours; 10 nM rapamycin, 10 μM irinotecan
# Source text: FIG. 9. Compound B inhibits irinotecan-induced Akt phosphorylation and enhances irinotecan-induced apoptosis in ovarian tumor cells. […] Phospho-Akt was detected using an antoibody specific to Serine 473. […] Apoptosis is expressed as the fold increase in induction relative to DMSO-treated cells.
# FIG. 10. Compound B inhibits doxorubicin-induced Akt phosphorylation and enhances doxorubicin-induced apoptosis in ovarian tumor cells. […] Phospho-Akt was detected using an antibody specific to Serine 473. […] Apoptosis is expressed as the fold increase in induction relative to DMSO-treated cells.
smiles,measurement,setting,value
CO[C@H]1C[C@@H]2CC[C@@H](C)[C@@](O)(O2)C(=O)C(=O)N2CCCC[C@H]2C(=O)O[C@H]([C@H](C)C[C@@H]2CC[C@@H](O)[C@H](OC)C2)CC(=O)[C@H](C)/C=C(\C)[C@@H](O)[C@@H](OC)C(=O)[C@H](C)C[C@H](C)/C=C/C=C/C=C/1C [Rapamycin],tumor cells tested in which pAKT is induced,[1]; Table 2,~62%
same,cancer cell lines in which pAkt (S473) is inhibited,[1]; statement of the description,~20%
same,cell lines in which treatment increases pAkt (S473),[1]; statement of the description,~65%
same,cell lines in a given tumor type that are insensitive (anti-proliferative activity),[2],approximately 50%
N.N.[Cl][Pt][Cl] [cisplatin],"effect on pAkt-S473, single agent",[3],promotes an increase in Akt phosphorylation
COc1cccc2c1C(=O)c1c(O)c3c(c(O)c1C2=O)C[C@@](O)(C(=O)CO)C[C@@H]3O[C@H]1C[C@H](N)[C@H](O)[C@H](C)O1 [doxorubicin],"induction in apoptosis, single agent",[4],no significant induction in apoptosis
same,"effect on pAkt-S473, single agent",[5],promotes an increase in Akt phosphorylation
Nc1ccn([C@@H]2O[C@H](CO)[C@@H](O)C2(F)F)c(=O)n1 [gemcitabine],"effect on Akt phosphorylation (serine 473), single agent",[6],increased Akt phosphorylation on serine 473
CCc1c2c(nc3ccc(OC(=O)N4CCC(N5CCCCC5)CC4)cc13)-c1cc3c(c(=O)n1C2)COC(=O)[C@]3(O)CC [irinotecan],"effect on pAkt levels, single agent",[7],causes an induction in pAkt levels
